Here are results for nine molecules from ChEMBL document CHEMBL1909046, “DrugMatrix in vitro pharmacology data”.

Structures are written as SMILES.

The target in data set [1] is Voltage-gated inwardly rectifying potassium channel KCNH2 (Homo sapiens, UniProt Q12809). The settings on record: hek293. Note: in other assays of this panel Not Active means under 50% inhibition at 10 µM.
Data set [2] is described as follows: DRUGMATRIX: Nicotinic Acetylcholine radioligand binding (ligand: [125I] Epibatidine). The format is cell membranes, Membrane. The settings on record: imr-32; Not Active = under 50% inhibition at 10 µM.
The target of data set [3] is T1, Vasoactive intestinal polypeptide receptor 1 (Homo sapiens, UniProt P32241). Note: in other assays of this panel Not Active means under 50% inhibition at 10 µM.
T1 sequence (P32241 whole entry): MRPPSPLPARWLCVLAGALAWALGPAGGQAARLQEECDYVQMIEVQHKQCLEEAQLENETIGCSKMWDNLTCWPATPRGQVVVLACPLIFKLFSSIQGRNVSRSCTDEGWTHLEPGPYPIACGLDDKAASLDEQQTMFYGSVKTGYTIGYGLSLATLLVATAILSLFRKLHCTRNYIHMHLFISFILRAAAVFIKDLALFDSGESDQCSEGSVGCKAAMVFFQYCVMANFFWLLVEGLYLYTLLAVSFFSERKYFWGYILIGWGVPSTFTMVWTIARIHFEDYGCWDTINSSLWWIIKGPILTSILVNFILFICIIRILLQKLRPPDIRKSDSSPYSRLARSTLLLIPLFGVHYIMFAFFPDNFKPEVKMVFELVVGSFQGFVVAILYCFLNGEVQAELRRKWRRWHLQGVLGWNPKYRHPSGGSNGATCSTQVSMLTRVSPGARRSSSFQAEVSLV
The format is cell membranes, Membrane. The settings on record: ht-29.

The next data set addresses T2, Cytochrome P450 1A2 (Homo sapiens, UniProt P05177).
T2 sequence (P05177 whole entry): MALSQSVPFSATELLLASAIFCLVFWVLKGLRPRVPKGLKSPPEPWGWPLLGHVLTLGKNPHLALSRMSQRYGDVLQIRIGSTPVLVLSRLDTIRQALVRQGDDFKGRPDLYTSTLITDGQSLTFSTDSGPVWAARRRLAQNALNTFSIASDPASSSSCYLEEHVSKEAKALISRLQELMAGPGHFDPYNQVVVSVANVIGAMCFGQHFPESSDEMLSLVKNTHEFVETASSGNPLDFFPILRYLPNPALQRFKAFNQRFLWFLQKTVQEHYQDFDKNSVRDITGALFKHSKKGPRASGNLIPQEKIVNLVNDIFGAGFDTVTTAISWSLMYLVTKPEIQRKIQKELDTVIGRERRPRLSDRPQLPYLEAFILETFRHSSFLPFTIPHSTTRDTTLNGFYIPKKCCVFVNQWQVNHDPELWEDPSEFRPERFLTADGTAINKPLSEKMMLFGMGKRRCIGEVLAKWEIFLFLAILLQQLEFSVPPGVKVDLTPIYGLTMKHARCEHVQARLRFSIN
The settings on record: bti-tn-5b1-4.

In data set [4] the target is T3, Alpha-2C adrenergic receptor (Homo sapiens, UniProt P18825).
T3 sequence (P18825 whole entry): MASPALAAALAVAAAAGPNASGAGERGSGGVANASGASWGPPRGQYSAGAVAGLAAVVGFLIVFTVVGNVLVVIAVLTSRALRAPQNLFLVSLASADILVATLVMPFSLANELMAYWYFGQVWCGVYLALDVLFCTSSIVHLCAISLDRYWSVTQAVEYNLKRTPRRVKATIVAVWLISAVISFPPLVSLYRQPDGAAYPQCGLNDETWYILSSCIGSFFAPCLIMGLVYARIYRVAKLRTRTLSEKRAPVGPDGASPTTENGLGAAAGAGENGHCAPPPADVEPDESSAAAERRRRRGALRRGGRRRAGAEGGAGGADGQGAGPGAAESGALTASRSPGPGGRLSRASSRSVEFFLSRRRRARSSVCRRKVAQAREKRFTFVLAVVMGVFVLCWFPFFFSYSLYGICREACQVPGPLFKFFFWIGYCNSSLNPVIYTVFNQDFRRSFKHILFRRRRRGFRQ
The data set is described as follows: DRUGMATRIX: Adrenergic Alpha-2C radioligand binding (ligand: [3H] MK-912). The format is cell membranes, Sf9, Membrane. The settings on record: sf9.

The target in the next data set is Cytochrome P450 2D6 (Homo sapiens, UniProt P10635). The settings on record: bti-tn-5b1-4. Note: in other assays of this panel Not Active means under 50% inhibition at 10 µM.
Data set [5] deals with 5-hydroxytryptamine receptor 1B (Rattus norvegicus, UniProt P28564). Format: cell membranes, Wistar, Cerebral cortex, Membrane.
Data set [6] addresses Protein kinase C alpha type (Homo sapiens, UniProt P17252). The format is cell-based. The settings on record: sf9.
A short description of data set [7]: DRUGMATRIX: Phosphodiesterase PDE3 enzyme inhibition (substrate: [3H]cAMP + cAMP). The format is tissue-based, Homo sapiens. The settings on record: platelet; Not Active = under 50% inhibition at 10 µM.
Data set [8] addresses 5-hydroxytryptamine receptor 2B (Homo sapiens, UniProt P41595). The format is cell membranes, CHO-K1, Membrane.
The target of a further data set is D(1A) dopamine receptor (Homo sapiens, UniProt P21728). Description: DRUGMATRIX: Dopamine D1 radioligand binding (ligand: [3H] SCH-23390). Format: cell membranes, CHO, Membrane. The settings on record: cho; Not Active = under 50% inhibition at 10 µM.
Chain of D(1A) dopamine receptor (P21728 whole entry): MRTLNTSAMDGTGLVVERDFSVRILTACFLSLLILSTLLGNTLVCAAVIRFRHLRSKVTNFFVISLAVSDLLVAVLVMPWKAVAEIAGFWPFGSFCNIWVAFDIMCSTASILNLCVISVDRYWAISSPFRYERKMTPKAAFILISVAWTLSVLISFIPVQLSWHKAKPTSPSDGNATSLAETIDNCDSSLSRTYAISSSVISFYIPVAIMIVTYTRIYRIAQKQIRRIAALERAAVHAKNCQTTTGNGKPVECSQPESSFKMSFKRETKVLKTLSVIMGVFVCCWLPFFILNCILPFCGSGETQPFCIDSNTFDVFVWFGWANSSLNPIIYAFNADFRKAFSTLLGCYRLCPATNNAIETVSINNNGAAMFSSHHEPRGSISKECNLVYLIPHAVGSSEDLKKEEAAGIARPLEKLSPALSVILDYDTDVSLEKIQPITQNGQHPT

Chain of 5-hydroxytryptamine receptor 2B (P41595 whole entry): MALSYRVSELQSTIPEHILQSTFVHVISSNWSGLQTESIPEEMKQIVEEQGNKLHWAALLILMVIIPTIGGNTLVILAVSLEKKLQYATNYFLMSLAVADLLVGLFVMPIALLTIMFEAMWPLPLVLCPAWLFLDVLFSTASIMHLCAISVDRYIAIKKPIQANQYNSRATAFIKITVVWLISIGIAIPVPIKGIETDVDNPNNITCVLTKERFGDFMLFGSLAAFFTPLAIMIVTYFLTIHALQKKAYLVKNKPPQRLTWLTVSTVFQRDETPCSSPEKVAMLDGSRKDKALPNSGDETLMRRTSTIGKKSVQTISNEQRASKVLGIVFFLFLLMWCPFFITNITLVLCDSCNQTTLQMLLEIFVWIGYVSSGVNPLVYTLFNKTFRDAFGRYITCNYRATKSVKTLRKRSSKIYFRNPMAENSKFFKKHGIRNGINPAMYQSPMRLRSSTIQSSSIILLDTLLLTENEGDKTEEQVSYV
Chain of 5-hydroxytryptamine receptor 1B (P28564 whole entry): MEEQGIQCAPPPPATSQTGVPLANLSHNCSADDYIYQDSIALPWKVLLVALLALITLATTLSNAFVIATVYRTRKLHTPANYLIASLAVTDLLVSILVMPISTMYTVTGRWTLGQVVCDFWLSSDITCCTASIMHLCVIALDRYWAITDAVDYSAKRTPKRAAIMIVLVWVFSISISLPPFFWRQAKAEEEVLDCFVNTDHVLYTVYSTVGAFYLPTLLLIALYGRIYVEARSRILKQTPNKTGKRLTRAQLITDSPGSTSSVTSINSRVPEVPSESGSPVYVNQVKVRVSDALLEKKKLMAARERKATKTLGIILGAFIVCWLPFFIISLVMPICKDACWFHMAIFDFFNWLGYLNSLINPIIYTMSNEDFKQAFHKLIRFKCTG
Chain of Voltage-gated inwardly rectifying potassium channel KCNH2 (Q12809 whole entry): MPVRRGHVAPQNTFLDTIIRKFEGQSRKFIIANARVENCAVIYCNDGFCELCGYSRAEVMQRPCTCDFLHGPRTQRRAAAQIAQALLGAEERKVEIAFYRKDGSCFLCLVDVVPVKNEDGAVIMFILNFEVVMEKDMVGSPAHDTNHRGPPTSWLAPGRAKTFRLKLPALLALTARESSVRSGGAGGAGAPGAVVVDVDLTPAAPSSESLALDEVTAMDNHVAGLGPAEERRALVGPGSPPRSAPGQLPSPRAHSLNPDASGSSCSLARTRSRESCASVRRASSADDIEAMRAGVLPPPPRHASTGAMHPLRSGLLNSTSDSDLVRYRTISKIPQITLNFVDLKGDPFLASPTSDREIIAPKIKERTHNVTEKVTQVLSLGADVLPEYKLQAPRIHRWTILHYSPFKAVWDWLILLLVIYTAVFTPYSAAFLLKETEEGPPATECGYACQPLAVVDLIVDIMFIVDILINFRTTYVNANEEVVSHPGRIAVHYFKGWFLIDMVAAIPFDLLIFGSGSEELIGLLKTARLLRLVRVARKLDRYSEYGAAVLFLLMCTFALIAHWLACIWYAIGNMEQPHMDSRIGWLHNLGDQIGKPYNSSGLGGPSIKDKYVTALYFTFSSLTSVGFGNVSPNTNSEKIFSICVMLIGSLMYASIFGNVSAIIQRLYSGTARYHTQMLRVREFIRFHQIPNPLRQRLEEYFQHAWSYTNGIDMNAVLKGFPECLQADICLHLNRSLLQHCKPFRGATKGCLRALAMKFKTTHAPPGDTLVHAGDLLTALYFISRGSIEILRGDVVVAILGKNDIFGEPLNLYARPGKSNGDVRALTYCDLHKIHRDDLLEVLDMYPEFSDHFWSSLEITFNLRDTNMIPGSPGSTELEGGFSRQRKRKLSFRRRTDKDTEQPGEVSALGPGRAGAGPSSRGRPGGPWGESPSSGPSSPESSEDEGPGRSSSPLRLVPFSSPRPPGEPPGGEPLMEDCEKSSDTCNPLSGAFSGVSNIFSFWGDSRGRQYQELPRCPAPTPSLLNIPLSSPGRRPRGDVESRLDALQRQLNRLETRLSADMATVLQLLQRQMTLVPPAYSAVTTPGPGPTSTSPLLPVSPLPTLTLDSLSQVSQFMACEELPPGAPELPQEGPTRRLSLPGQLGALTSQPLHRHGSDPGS
Chain of Cytochrome P450 2D6 (P10635 whole entry): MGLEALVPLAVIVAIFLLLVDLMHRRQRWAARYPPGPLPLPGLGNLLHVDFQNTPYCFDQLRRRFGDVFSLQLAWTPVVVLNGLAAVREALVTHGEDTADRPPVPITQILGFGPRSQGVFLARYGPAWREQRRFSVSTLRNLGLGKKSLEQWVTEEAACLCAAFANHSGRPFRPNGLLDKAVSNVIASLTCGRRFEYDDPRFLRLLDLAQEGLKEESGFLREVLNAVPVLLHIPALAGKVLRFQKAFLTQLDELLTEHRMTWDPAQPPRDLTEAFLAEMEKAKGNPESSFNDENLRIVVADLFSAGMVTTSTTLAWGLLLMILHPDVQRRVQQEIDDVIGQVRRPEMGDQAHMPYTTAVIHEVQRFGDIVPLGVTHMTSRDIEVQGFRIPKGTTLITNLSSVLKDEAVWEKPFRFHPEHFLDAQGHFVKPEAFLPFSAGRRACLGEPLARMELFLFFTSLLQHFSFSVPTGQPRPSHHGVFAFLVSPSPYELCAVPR

For orientation: IC50 means the concentration that inhibits the measured activity by half. Broadly, the Ki is the equilibrium dissociation constant of an inhibitor or competing ligand from its target. For `CC(C)(C)NC(=O)[C@@H]1CN(Cc2cccnc2)CCN1C[C@@H](O)C[C@@H](Cc1ccccc1)C(=O)N[C@H]1c2ccccc2C[C@H]1O.O`, the half-inhibitory concentration (IC50) result (in [1]; in data set [2]; in data set [3]; on Cytochrome P450 1A2; in data set [4]; on Cytochrome P450 2D6) was “Not Active” in each case. For the same molecule, the half-maximal inhibitory concentration (IC50) entry (in [5]; in [6]; in [7]; in [8] (cho-k1); on D(1A) dopamine receptor) was “Not Active” each time. The Ki entry (in [1]; in data set [2]; at Cytochrome P450 1A2; on Cytochrome P450 2D6; in [7]) was “Not Active” throughout.

`Clc1ccccc1C(c1ccccc1)(c1ccccc1)n1ccnc1` [CLOTRIMAZOLE]: the IC50 entry was “Not Active” in data set [1]; “Not Active” in data set [3]; “Not Active” at Cytochrome P450 1A2; “Not Active” at Cytochrome P450 2D6; 27.3 µM in data set [5] (read-out: IC50); “Not Active” in [6]. Moreover, the concentration for half-maximal inhibition (IC50) in data set [8] (read-out: IC50) worked out at 11.6 µM. Further, the Ki result in data set [1] was “Not Active”; at Cytochrome P450 1A2 it was “Not Active”; at Cytochrome P450 2D6, “Not Active”; in data set [5] (read-out: Ki) it was 12.4 µM; in data set [8] (read-out: Ki), 7.38 µM.

On to `Nc1nnc(-c2cccc(Cl)c2Cl)c(N)n1` [LAMOTRIGINE], for which the IC50 result (in [2]; in [3]; against Cytochrome P450 1A2; in data set [4]; against Cytochrome P450 2D6; in data set [5]) was “Not Active” throughout. Moreover, the IC50 entry (in [6]; in data set [7]; in [8] (cho-k1); at D(1A) dopamine receptor) was “Not Active” each time. The Ki entry (in data set [2]; at Cytochrome P450 1A2; at Cytochrome P450 2D6; in [7]) was “Not Active” in each case.

As to `NNc1ccccc1` [PHENYLHYDRAZINE], the IC50 entry in data set [1], in data set [2], in data set [3], in data set [4], in data set [5] and in data set [6] was “Not Active” each time. In addition, the IC50 result (in data set [7]; in data set [8] (cho-k1); at D(1A) dopamine receptor) was “Not Active” in each case. Also, the Ki entry in data set [1], in [2] and in [7] was “Not Active” throughout.

As for `CC(=O)[C@H]1CC[C@H]2[C@@H]3CCC4=CC(=O)CC[C@]4(C)[C@H]3CC[C@]12C` [PROGESTERONE], the 50% inhibitory concentration (IC50) entry (in data set [2]; in data set [3]; on Cytochrome P450 1A2; in data set [4]; on Cytochrome P450 2D6; in data set [5]) was “Not Active” in each case. Further, the half-maximal inhibitory concentration (IC50) entry (in data set [6]; in [7]; in [8] (cho-k1); on D(1A) dopamine receptor) was “Not Active” throughout. Besides, the Ki result (in data set [2]; on Cytochrome P450 1A2; on Cytochrome P450 2D6; in data set [7]) was “Not Active” throughout.

With `CC(=O)S[C@@H]1CC2=CC(=O)CC[C@]2(C)[C@H]2CC[C@@]3(C)[C@@H](CC[C@@]34CCC(=O)O4)[C@H]12` [SPIRONOLACTONE], the half-inhibitory concentration (IC50) result in data set [1], in data set [2], in [3], in data set [4], in [5] and in [6] was “Not Active” each time. Also, the IC50 result (in data set [7]; in data set [8] (cho-k1); at D(1A) dopamine receptor) was “Not Active” each time. In addition, the inhibition constant Ki result in [1], in data set [2] and in data set [7] was “Not Active” each time.

On to `CC(C)(C)NCC(O)c1cc(O)cc(O)c1` (configuration not stated) [TERBUTALINE], for which the IC50 result (in [1]; in data set [2]; in data set [3]; at Cytochrome P450 1A2; in data set [4]; on Cytochrome P450 2D6) was “Not Active” in each case. The IC50 entry (in data set [5]; in [6]; in data set [7]; in data set [8] (cho-k1); on D(1A) dopamine receptor) was “Not Active” in each case. Moreover, the Ki result (in data set [1]; in [2]; at Cytochrome P450 1A2; on Cytochrome P450 2D6; in [7]) was “Not Active” each time.

Regarding `Cc1ccc(C(=O)C(C)CN2CCCCC2)cc1` (configuration not stated) [TOLPERISONE], the IC50 result (in data set [1]; in data set [2]; in data set [3]; at Cytochrome P450 1A2; in [4]; against Cytochrome P450 2D6) was “Not Active” throughout. In addition, the half-inhibitory concentration (IC50) result (in data set [5]; in [6]; in data set [7]; in data set [8] (cho-k1); at D(1A) dopamine receptor) was “Not Active” each time. Besides, the inhibitory constant (Ki) entry (in [1]; in data set [2]; at Cytochrome P450 1A2; at Cytochrome P450 2D6; in data set [7]) was “Not Active” throughout.

Take `COC(=O)[C@@H]1[C@H]2C[C@H]3c4[nH]c5ccccc5c4CCN3C[C@@H]2CC[C@@H]1O` [YOHIMBINE]: the concentration for half-maximal inhibition (IC50) entry in data set [1], in data set [2], in data set [3], in data set [5], in data set [6] and in data set [7] was “Not Active” in each case. The half-inhibitory concentration (IC50) entry at D(1A) dopamine receptor was “Not Active”. Besides, the Ki entry in [1], in data set [2] and in data set [7] was “Not Active” each time.
